Assay results: US20150004110A1, “NOVEL ANTI-AGING AND DEPIGMENTING COSMETIC COMPOSITIONS” (DIVERCHIM, priority 2011, published 2015)
Read-outs that look alike come from different tables or passages of the source.

Columns and labels:
[1] = system: HSPB1, heat shock protein beta-1; assay: RT-qPCR expression of HSPB1 in keratinocytes; type: cell-based, human; conditions: 10 μM
Description: The expression of the specific markers was evaluated by RT-qPCR (reverse transcription quantitative polymerase chain reaction) on messenger RNAs extracted from the cell lawns from each treatment. The transcriptomic profile contains 64 genes selected for their importance in keratinocyte differentiation. The PCR reactions (polymerase chain reactions) were carried out by quantitative PCR with the “Light Cycler” system (Roche Molecular System Inc.) according to the procedures recommended by the supplier. Normal human epidermal keratinocytes were incubated in the presence of compound 1 or a reference with calcium chloride. The expression of the specific markers was evaluated by RT-qPCR on the messenger RNAs extracted from the cell lawns from each treatment.

[2] = system: B16 melanocytes stimulated with NDP-MSH; assay: Anti-melanogenesis activity: melanin synthesis in B16 melanocytes stimulated with NDP-MSH; type: cell-based
Description: The depigmenting effect was evaluated on a line of type B16 melanocytes stimulated with NDP-MSH, (natural hormone stimulating melanogenesis; Melanocyte Stimulating Hormone, [Nle, DPhe]-α-MSH). Melanin synthesis was evaluated.
The anti-melanogenesis activity of the compounds in solution in DMSO was evaluated by measuring melanin synthesis in a model of B16 melanocytes stimulated with a stable derivative of α-MSH (natural melanogenesis stimulating hormone): NDP-MSH.
The melanocytes were seeded in a 96-well plate and were cultured for 24 h (37° C., 5% CO2, DMEM 1 g/L glucose without phenol red supplemented with glucose at 3 g/L, L-glutamine at 2 mM, penicillin at 50 U/mL, streptomycin at 50 μg/mL, foetal calf serum (FCS) at 10%). After incubation, the culture medium was then replaced with culture medium supplemented or not supplemented (unstimulated control) with a stable derivative of α-MSH and containing or not containing (controls) the test compounds or the reference (kojic acid at 25, 100, 400, 800 μg/mL). Each experiment was carried out with n=3, apart from the controls carried out with n=6, then the cells were incubated for 72 h. Wells without cells received in parallel the same quantities of medium supplemented or not supplemented with NDP-MSH and containing or not containing the test compounds or the reference in order to quantify the background noise associated with the presence of the compounds.
After incubation for 72 hours, the total melanin (intra- and extracellular) was quantified by measuring the absorption at 405 nm of each sample (direct reading of the culture plates) against a standard range of melanin (melanin concentrations tested from 0.78 to 100 μg/mL). The background noise, measured in the wells without cells, was subtracted from the measured values so as only to take into account the effect connected with melanin production, without taking into account the possible interference connected with the presence of the compounds. The results were expressed as percentage of melanin relative to the control as well as percentage inhibition.
The operating conditions are the same as in Example 12.

Transglutaminase K, TGK = assay: In situ immunolabelling of TGK in keratinocytes; type: cell-based; conditions: normal human epidermal keratinocytes
Description: Transglutaminase K, TGK, and filaggrin are two protein markers of epidermal differentiation involved in arrangement of the keratin filaments and formation of the envelope of the stratum corneum.

PPARδ (h) = target: T1, PPARδ (h) (Homo sapiens, UniProt Q03181); assay: PPARδ antagonist effect, coactivator Alpha screen; type: biochemical
T1 sequence (Q03181 1-441): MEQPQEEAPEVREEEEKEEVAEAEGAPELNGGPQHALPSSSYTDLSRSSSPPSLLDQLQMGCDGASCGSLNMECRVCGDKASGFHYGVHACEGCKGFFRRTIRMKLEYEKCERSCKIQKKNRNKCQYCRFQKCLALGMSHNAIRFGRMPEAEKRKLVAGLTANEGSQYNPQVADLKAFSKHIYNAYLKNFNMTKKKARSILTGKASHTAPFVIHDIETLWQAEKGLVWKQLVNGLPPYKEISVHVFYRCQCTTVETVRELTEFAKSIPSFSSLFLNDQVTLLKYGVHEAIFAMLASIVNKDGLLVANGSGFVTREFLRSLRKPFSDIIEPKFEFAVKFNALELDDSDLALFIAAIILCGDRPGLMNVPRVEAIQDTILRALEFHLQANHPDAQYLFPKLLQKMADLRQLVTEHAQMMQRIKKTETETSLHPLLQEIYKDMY
Description: (§1) The agonist or antagonist activity of compound 1 on the PPAR receptors was tested by fluorescence techniques. • Material and Methods
(§2) The results are expressed as: • percentage of control specific agonist response (measured specific response/control specific agonist response)×100) and • percentage inhibition of the control specific agonist response (100−((measured specific response)/control specific agonist response)×100)) obtained in the presence of compound 1.
(§3) The EC50 values (concentration at which the maximum specific response is 50%) and the IC50 values (concentration at which the maximum control specific agonist response is inhibited by 50%) are determined by non-linear regression analysis of the concentration-response curves with a mean replicated value using adjustment of Hill's equation
(§4) For the antagonists, the apparent dissociation constants (KB) were calculated using the modified Cheng-Prusoff equation

PPARα (h) = target: T2, PPARα (h) (Homo sapiens, UniProt Q07869); assay: PPARα antagonist effect, coactivator Alpha screen; type: biochemical
T2 sequence (Q07869 1-468): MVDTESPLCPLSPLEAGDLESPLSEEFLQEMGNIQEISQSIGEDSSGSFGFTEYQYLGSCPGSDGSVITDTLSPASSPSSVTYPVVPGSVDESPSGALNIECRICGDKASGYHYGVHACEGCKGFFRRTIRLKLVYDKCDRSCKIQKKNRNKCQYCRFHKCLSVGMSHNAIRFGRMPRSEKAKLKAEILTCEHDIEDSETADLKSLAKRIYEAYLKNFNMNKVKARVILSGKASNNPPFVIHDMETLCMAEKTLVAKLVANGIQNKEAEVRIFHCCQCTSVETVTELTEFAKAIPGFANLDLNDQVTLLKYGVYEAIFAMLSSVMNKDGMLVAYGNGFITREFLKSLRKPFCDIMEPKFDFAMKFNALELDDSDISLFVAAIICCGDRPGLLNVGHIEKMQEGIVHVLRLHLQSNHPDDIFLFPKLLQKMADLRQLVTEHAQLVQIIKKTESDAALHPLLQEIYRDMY
Description: as §1, §2, §3, §4

[3] = Melanocyte, NDP-MSH stimulated B16, 72 h, Table 2, read-out: Standardized data Inhibition (%) (melanin)
[4] = Melanocyte, comparison with 2 reference molecules, Table 3, read-out: Standardized data Inhibition (%) (melanin)
[5] = 10^−5 M, read-out: % Inhibition of control agonist response
[6] = 10^−6 M, read-out: % Inhibition of control agonist response
[7] = 10^−7 M, read-out: % Inhibition of control agonist response

inhibition at 10 µM (PPARδ (h); [5]): -5%
inhibition at 1 µM (PPARδ (h); [6]): -2%
inhibition at 0.1 µM (PPARδ (h); [7]): 0%
PPARδ antagonist activity (conclusion in words) (PPARδ (h); 10^−7 to 10^−5 M): not an antagonist
inhibition at 10 µM (PPARα (h); [5]): 4%
inhibition at 1 µM (PPARα (h); [6]): 0%
inhibition at 0.1 µM (PPARα (h); [7]): 1%
PPARα antagonist activity (conclusion in words) (PPARα (h); 10^−7 to 10^−5 M): not an antagonist
SMILES: Oc1ccccc1CCOc1ccc(F)cc1 [Compound 1, 2-[2-(4-fluoro-phenoxy)-ethyl]-phenol]
Expression of the stress protein HSPB1 [1]: inhibition of expression
Depigmenting effect (inhibition of melanin synthesis), in words ([2]; 30 μM and 100 μM): clear inhibitory effect
Depigmenting effectiveness compared with the two reference products ([2]; 30 μM and 100 μM, versus rucinol and [869743-37-3]): slightly more effective than the two reference products used
inhibition at 10 µM ([2]; Melanocyte, 10 μM, NDP-MSH stimulated B16, 72 h, Table 2, read-out: Standardized data Inhibition (%) (melanin)): 0%
inhibition at 30 µM [2, 3]: 93%
inhibition at 30 µM [2, 4]: 98%
inhibition at 100 µM [2, 3]: 112%
inhibition at 100 µM [2, 4]: 124%
Protein expression of TGK (Transglutaminase K, TGK): concentration-dependent stimulation of protein expression
